Data reported in patent US20240335569A1, “FIBROBLAST ACTIVATION PROTEIN INHIBITORS AND USE THEREOF” (3 B PHARMACEUTICALS GMBH, priority 2021, published 2024).

What was measured:
Recombinant human DPP4 = Recombinant human DPP4 (Homo sapiens (Human), UniProt P27487); assay: DPP4 protease activity assay; format: biochemical
Method: The PREP activity assay was performed using the FACS buffer (PBS including 1% FBS, Sigma-Aldrich, Cat #D8537). […] The DPP4 activity assay was performed in DPP assay buffer (25 mM Tris, pH 8.0). […] Four parameter logistic (4PL) curve fitting and pIC50 calculations were performed using ActivityBase software.

HT-29 cells = assay: Stability in the presence of tumor cells (HT-29), FAP IC50 of supernatants; format: in vitro ADME, human; conditions: for pIC50 (incubation in cell medium w/o HT-29) / pIC50 (incubation in the presence of HT-29 cells): 10 μM compound, supernatant tested on recombinant human FAP; for pIC50 (incubation in cell medium w/o HT-29): 24 hours at 37° C. in control wells without cells; for pIC50 (incubation in the presence of HT-29 cells): 24 hours at 37° C. with HT-29 cells
Method: Cells were cultured in McCoys's 5A modified medium (Biochrom, #F1015) including 10% fetal bovine serum (FBS), 2 mM L-glutamine, 100 U/ml penicillin and 100 μg/mL streptomycin (growth medium). […] 1 mL of the cell suspension were seeded in 24-well plates and incubated overnight at 37° C. and 5% CO2. The next day, cells were washed twice and growth medium was exchanged against DMEM without phenol red (Biochrom, #F0475) including 2 mM L-glutamine. Test compound was diluted in DMEM without phenol red (Biochrom, #F0475) including 2 mM L-glutamine. 400 μL of a 10 μM solution of the test compound was incubated for 24 hours at 37° C. and 5% CO2 in the presence of cells as well as in control wells (without cells) of the same 24-well plate.
25 μL of a 30 μM substrate solution, diluted in assay buffer, was added. All solutions were equilibrated at 37° C. prior to use. […] RFU/sec was calculated by SoftMax Pro software and plotted against test compound concentration. Four parameter logistic (4PL) curve fitting and IC50/pIC50 calculations were performed using GraphPad Prism 9.1 software.
The stability of exemplary compounds was further assessed in the presence of a variety of human cell lines from different tissue origins. […] Compounds were diluted in DMEM without phenol red (Biochrom, #F0475) including 2 mM L-glutamine. 400 μL of a 10 μM solution of the test compound was incubated for 24 hours at 37° C. and 5% CO2 in the presence of cells as well as in control wells (without cells) of the same 24-well plate. IC50/pIC50 determination of the supernatants was performed as described above.

[1] = target: FAP-expressing human WI-38 fibroblasts (Homo sapiens (Human), UniProt Q12884); assay: FACS binding assay (competitive, Cy5-labeled 3BP-2935)
Chain of FAP-expressing human WI-38 fibroblasts (Q12884 whole entry): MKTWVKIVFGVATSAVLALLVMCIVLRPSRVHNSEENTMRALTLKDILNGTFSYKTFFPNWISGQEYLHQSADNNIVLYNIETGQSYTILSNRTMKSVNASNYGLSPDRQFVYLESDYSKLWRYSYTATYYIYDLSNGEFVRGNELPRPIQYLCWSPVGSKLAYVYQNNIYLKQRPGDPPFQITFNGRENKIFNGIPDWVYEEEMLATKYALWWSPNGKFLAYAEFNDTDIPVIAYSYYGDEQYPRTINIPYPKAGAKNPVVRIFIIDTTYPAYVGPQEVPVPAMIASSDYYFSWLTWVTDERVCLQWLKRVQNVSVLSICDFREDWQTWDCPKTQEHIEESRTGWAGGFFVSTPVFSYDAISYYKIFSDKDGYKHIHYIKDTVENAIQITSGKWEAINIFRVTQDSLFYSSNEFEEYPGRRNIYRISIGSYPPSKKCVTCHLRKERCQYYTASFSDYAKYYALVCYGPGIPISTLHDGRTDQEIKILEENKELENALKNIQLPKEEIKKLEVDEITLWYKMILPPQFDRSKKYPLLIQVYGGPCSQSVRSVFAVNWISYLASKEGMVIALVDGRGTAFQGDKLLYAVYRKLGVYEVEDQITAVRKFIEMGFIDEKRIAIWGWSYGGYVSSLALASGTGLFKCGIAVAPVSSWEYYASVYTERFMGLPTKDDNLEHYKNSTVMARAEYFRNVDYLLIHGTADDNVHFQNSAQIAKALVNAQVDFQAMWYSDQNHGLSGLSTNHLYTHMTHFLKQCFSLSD
Method: In order to determine binding of compounds according to the present invention to FAP-expressing cells, a competitive FACS binding assay was established. […] Cells were diluted in FACS buffer to a final concentration of 100.000 cells per ml and 200 μl of the cell suspension are transferred to a u-shaped non-binding 96-well plate (Greiner). […] Cell were washed twice with FACS buffer (see above) and resuspended in 200 μl FACS buffer. Cells were analyzed in an Attune NxT flow cytometer (Thermo Fisher Scientific). Median fluorescence intensities (Cy5 channel) were calculated by Attune NxT software and plotted against test compound concentrations. Four parameter logistic (4PL) curve fitting and pIC50 calculations were performed using ActivityBase software.

Human recombinant FAP [2] = target: T1, Human recombinant FAP (Homo sapiens (Human), UniProt Q12884); assay: FAP protease activity assay (human), FRET-based; format: biochemical; conditions: for IC50: read-out: pIC50 (Activity) (converted)
Method: In order to determine the inhibitory activity a FRET-based FAP protease activity assay was established.
Four parameter logistic (4PL) curve fitting and pIC50 calculations were performed using ActivityBase software (IDBS).
Target sequence in this assay (Q12884 26-760): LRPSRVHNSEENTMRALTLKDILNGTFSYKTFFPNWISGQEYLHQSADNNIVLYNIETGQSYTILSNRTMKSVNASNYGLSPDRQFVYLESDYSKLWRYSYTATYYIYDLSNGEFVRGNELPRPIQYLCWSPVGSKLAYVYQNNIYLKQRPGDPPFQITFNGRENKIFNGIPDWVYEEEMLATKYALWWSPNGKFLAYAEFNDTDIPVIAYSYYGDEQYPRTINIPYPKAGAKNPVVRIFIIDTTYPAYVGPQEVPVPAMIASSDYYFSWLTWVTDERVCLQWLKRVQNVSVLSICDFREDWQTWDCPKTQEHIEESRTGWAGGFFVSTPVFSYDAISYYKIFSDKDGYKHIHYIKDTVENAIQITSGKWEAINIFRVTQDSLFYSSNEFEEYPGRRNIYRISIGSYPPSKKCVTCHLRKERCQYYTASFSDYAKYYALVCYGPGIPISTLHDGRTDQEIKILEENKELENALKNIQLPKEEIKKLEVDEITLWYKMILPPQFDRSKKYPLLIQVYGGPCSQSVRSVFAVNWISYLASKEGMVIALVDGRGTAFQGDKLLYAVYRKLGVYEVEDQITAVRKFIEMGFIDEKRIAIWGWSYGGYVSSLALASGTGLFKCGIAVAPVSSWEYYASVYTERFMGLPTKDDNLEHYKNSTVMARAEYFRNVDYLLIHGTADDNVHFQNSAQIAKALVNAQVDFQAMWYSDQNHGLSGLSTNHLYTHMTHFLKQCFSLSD

Human recombinant FAP [3] = target: T1, Human recombinant FAP; assay: Surface plasmon resonance assay (Biacore T200, SCK); format: binding; conditions: for HL [min] (Biacore): SPR dissociation half-life; for pKD (Biacore) / Kd: SPR; for Kd: read-out: pKD (Biacore) (converted)
Method: Surface plasmon resonance studies were performed using a Biacore™ T200 SPR system (Cytiva, formerly GE Healthcare). Briefly, polarized light is directed towards a gold-labeled sensor surface, and minimum intensity reflected light is detected. The angle of reflected light changes as molecules bind and dissociate. […] Test compounds are contacted with the loaded surface, and a real-time interaction profile with the FAP ligand is recorded in a sensorgram. In real-time, the association and dissociation of a binding interaction is measured, enabling calculation of association and dissociation rate constants and the corresponding affinity constants. Importantly, a background response is generated due to the difference in the refractive indices of the running and sample buffers, as well as unspecific binding of the test compounds to the flow cell surface. This background is measured and subtracted by running the sample on a control flow cell coated with the same density of capture antibody in the absence of immobilized FAP. Furthermore, baseline drift correction of the binding data is performed, which is caused by slow dissociation of the captured FAP from the immobilized antibody. This drift is measured by injecting running buffer through a flow cell with the antibody and FAP immobilized to the sensor surface.
Biacore™ CM5 sensor chips were used. […] A 150 μL aliquot was transferred into plastic vials and placed into the sample rack of the Biacore™ T200 instrument. Amine Coupling Kit Reagent solutions were transferred into plastic vials and placed into the sample rack: 90 μL of 0.4 M 1-ethyl-3-(3-dimethylaminopropyl) carbodiimide (EDC), and 90 μL of 0.1 M N-hydroxysuccinimide (NHS). A 130 μL aliquot of 1 M ethanolamine-HCl, pH 8.5, was transferred into plastic vials and placed into the sample rack. The Biacore™ liquid system was set-up as follows: Separate bottles containing distilled water (1 L), Running Buffer (500 mL), as well as an empty bottle for waste were placed onto the buffer tray. A preinstalled program for immobilization was used, with an immobilization level of 7000 RU. Immobilization was performed at 25° C. The immobilization procedure of anti-FAP antibodies was performed, as described in the Table 4.
Human recombinant FAP was diluted in Running Buffer to a final concentration of 20 μg/mL. A 100 μL aliquot of human FAP-Working-Solution was transferred into plastic vials and placed into a sample rack. A 0.5 mM Compound-Stock-Solution was prepared by dissolving each compound in DMSO. For each test compound, Compound-Stock-Solutions were diluted in Running Buffer (HBST) at 500 nM and further diluted with HBST-DMSO Buffer (0.1% DMSO). SPR binding analyses for binary complexes were performed in SCK mode at 25° C. Following three SCK measurements, a baseline drift was assessed by injecting running buffer through a flow cell, with the antibody and FAP immobilized to the sensor surface.
For each test compound, SPR raw data in the form of resonance units (RU) were plotted as sensorgrams using the Biacore™ T200 control software. The signal from the blank sensorgram was subtracted from that of the test compound sensorgram (blank corrected). The blank corrected sensorgram was corrected for baseline drift by subtracting the sensorgram of a SCK run without the test compound (running buffer only). The association rate (kon), dissociation rate (koff), dissociation constant (KD), and t1/2 were calculated from Blank-normalized SPR data using the 1:1 Langmuir binding model from the Biacore™ T200 evaluation software. Raw data and fit results were imported as text files in IDBS. The pKD value (negative decadic logarithm of dissociation constant) was calculated in the IDBS excel template.
Target sequence in this assay (Q12884 whole entry): as the sequence (Q12884 whole entry) above

[4] = FAP-expressing WI-38 fibroblasts
[5] = recombinant human FAP, FRET protease activity
[6] = human FAP protease activity, FRET

Chain of Recombinant human DPP4 (P27487 whole entry): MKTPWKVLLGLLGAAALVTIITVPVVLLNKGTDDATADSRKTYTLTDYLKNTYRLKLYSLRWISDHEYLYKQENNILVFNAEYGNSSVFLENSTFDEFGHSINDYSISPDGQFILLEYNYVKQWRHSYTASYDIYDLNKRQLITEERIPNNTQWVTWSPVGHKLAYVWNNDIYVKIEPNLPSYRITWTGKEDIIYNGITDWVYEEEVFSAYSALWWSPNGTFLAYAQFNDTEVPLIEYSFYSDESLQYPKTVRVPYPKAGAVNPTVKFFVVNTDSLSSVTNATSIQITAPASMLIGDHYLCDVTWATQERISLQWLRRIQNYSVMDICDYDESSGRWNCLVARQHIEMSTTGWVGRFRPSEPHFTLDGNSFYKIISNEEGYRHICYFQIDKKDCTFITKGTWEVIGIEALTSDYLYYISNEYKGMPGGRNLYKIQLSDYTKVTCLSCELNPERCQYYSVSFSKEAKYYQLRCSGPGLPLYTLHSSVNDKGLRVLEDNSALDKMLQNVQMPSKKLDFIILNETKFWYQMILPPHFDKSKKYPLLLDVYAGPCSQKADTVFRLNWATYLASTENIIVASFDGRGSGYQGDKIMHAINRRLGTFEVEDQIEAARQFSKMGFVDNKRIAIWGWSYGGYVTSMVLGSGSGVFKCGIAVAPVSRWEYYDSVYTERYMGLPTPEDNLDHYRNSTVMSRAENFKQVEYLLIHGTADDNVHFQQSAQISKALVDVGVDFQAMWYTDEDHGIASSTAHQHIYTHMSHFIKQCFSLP

## N#C[C@@H]1CCCN1C(=O)CNC(=O)c1ccnc2ccccc12 [Compound 3BP-2762]
Recombinant human DPP4
  pIC50 (DPP4): <6
HT-29 cells
  pIC50 (incubation in cell medium w/o HT-29): 8.4
  Residual activity after incubation with HT-29 cells for 24 hours (%): 63%

## Cn1ncnc1C(=O)[C@@H]1CCCN1C(=O)CNC(=O)c1ccnc2ccccc12 [Compound 3BP-3207]
[1]; [4]
  pIC50 (FACS): <6
Human recombinant FAP [2]; [5]
  pIC50 (Activity): 6.5

## N#C[C@@H]1CC(F)(F)CN1C(=O)CNC(=O)c1ccnc2ccccc12 [Compound 3BP-3232]
HT-29 cells
  pIC50 (incubation in the presence of HT-29 cells): 8.0
  Residual activity after incubation with HT-29 cells for 24 hours (%): 13%

## CS(=O)(=O)c1ccc(-c2ccc3c(C(=O)NCC(=O)N4CC(F)(F)C[C@H]4C#N)ccnc3c2)cc1 [Compound 3BP-3236]
Human recombinant FAP [3]
  HL [min] (Biacore): 37 min

## O=C(O)CN1CCN(CC(=O)O)CCN(CC(=O)N2CCN(CCCOc3ccc4nccc(C(=O)NCC(=O)N5CC(F)(F)C[C@H]5C(=O)c5nc6ccccc6o5)c4c3)CC2)CCN(CC(=O)O)CC1 [Compound 3BP-3412]
Human recombinant FAP [3]
  HL [min] (Biacore): 57 min
HT-29 cells
  pIC50 (incubation in the presence of HT-29 cells): 8.6
  Residual activity after incubation with HT-29 cells for 24 hours (%): >95%

## N#C[C@@H]1CC(F)(F)CN1C(=O)CNC(=O)c1ccnc2ccc(-c3ccc(S(=O)(=O)CCCNC(=O)CN4CCN(CC(=O)O)CCN(CC(=O)O)CCN(CC(=O)O)CC4)cc3)cc12 [Compound 3BP-3467]
Human recombinant FAP [3]
  pKD (Biacore): >10.5
  HL [min] (Biacore): >150 min
HT-29 cells
  pIC50 (incubation in cell medium w/o HT-29): 9.3
  pIC50 (incubation in the presence of HT-29 cells): 8.4
  Residual activity after incubation with HT-29 cells for 24 hours (%): 13%

## CC(C)(C)OC(=O)N1CC[N+]([O-])(CCCOc2ccc3nccc(C(=O)NCC(=O)N4CC(F)(F)C[C@H]4C#N)c3c2)CC1 [Compound 3BP-3577]
[1]; [4]
  pIC50 (FACS): 8.6
Human recombinant FAP [2]; [5]
  pIC50 (Activity): 9

## CC(C)(C)OC(=O)N1CC[N+]([O-])(CCCOc2ccc3c(c2)c(C(=O)NCC(=O)N2CC(F)(F)C[C@H]2C#N)cc[n+]3[O-])CC1 [Compound 3BP-3578]
[1]; [4]
  pIC50 (FACS): 8
Human recombinant FAP [2]; [5]
  pIC50 (Activity): 8.6

## CC(C)(C)OC(=O)N1CCN(CCCOc2ccc3c(c2)c(C(=O)NCC(=O)N2CC(F)(F)C[C@H]2C#N)cc[n+]3[O-])CC1 [Compound 3BP-3579]
[1]; [4]
  pIC50 (FACS): 8
Human recombinant FAP [2]; [5]
  pIC50 (Activity): 8.6

## CC(C)(C)OC(=O)N1CCN(CCCOc2ccc3nccc(C(=O)NCC(=O)N4CC(F)(F)C[C@H]4C#N)c3c2)CC1 [Compound 3BP-3580]
[1]; [4]
  pIC50 (FACS): 8.4
Human recombinant FAP [2]; [5]
  pIC50 (Activity): 8.8

## N#C[C@@H]1CC(F)(F)CN1C(=O)CNC(=O)c1ccnc2ccc(-c3ccc(C(=O)NCCCNC(=O)CN4CCN(CC(=O)O)CCN(CC(=O)O)CCN(CC(=O)O)CC4)cc3)cc12 [Compound 3BP-3621]
Human recombinant FAP [3]
  pKD (Biacore): >10.5
  HL [min] (Biacore): >150 min

## N#C[C@@H]1CC(F)(F)CN1C(=O)CNC(=O)c1ccnc2ccc(-c3ccc(C(=O)NCCN4CCN(C(=O)CN5CCN(CC(=O)O)CCN(CC(=O)O)CCN(CC(=O)O)CC5)CC4)cc3)cc12 [Compound 3BP-3631]
Human recombinant FAP [3]
  pKD (Biacore): >10.5
  HL [min] (Biacore): >150 min

## N#C[C@@H]1CCCN1C(=O)CNC(=O)c1ccnc2ccc(-c3ccc(C(=O)NCCCNC(=O)CN4CCN(CC(=O)O)CCN(CC(=O)O)CCN(CC(=O)O)CC4)cc3)cc12 [Compound 3BP-3785]
Human recombinant FAP [3]
  HL [min] (Biacore): >150 min

## N#C[C@@H]1CC(F)(F)CN1C(=O)CNC(=O)c1ccnc2ccc(-c3ccc(C(=O)NCCN4CCN(C(=O)CN5CCN(CC(=O)O)CCN(CC(=O)O)CCN(CC(=O)O)CC5)CC4)nc3)cc12 [Compound 3BP-4076, (S)-2,2′,2″-(10-(2-(4-(2-(5-(4-(2-(2-cyano-4,4-difluoropyrrolidin-1-yl)-2-oxoethylcarbamoyl)quinolin-6-yl)picolinamido)ethyl)piperazin-1-yl)-2-oxoethyl)-1,4,7,10-tetraazacyclododecane-1,4,7-triyl)triacetic Acid]
Human recombinant FAP [3]
  HL [min] (Biacore): >150 min
  Kd: < 0.0316 nM
[1]; WI-38 fibroblasts
  IC50: 1.26 nM
Human recombinant FAP [2]; [6]
  IC50: 0.631 nM

## O=C(NCC(=O)N1CCC[C@H]1B(O)O)c1ccnc2ccccc12 [Compound 3BP-4081]
[1]; WI-38 fibroblasts
  pIC50 (FACS): 8.5
Human recombinant FAP [2]; [6]
  pIC50 (Activity): 8.9

## CS(=O)(=O)c1ccc(-c2ccc3nccc(C(=O)NCC(=O)N4CC(F)(F)C[C@H]4C#N)c3c2)c(CO)c1 [Compound 3BP-4084, (S)—N-(2-(2-cyano-4,4-difluoropyrrolidin-1-yl)-2-oxoethyl)-6-(2-(hydroxymethyl)-4-(methylsulfonyl)phenyl)quinoline-4-carboxamide]
Human recombinant FAP [3]
  HL [min] (Biacore): >150 min

## COc1cccc2c(C(=O)NCC(=O)N3CC(F)(F)C[C@H]3C#N)ccnc12 [Compound 3BP-4085]
[1]; WI-38 fibroblasts
  pIC50 (FACS): 7.7
Human recombinant FAP [2]; [6]
  pIC50 (Activity): 8.2

## Cc1cccc2c(C(=O)NCC(=O)N3CC(F)(F)C[C@H]3C#N)ccnc12 [Compound 3BP-4150]
[1]; WI-38 fibroblasts
  pIC50 (FACS): 7.6
Human recombinant FAP [2]; [6]
  pIC50 (Activity): 7.9

## CCOc1cccc2c(C(=O)NCC(=O)N3CC(F)(F)C[C@H]3C#N)ccnc12 [Compound 3BP-4151]
[1]; WI-38 fibroblasts
  pIC50 (FACS): 7.7
Human recombinant FAP [2]; [6]
  pIC50 (Activity): 8.5

## O=C(NCC(=O)N1CCC[C@H]1C(=O)CO)c1ccnc2ccccc12 [Compound 3BP-4197, (S)—N-(2-(2-(2-hydroxyacetyl)pyrrolidin-1-yl)-2-oxoethyl)quinoline-4-carboxamide]
Human recombinant FAP [3]
  HL [min] (Biacore): 3.1 min
  Kd: 1 nM
[1]; WI-38 fibroblasts
  IC50: 10 nM
Human recombinant FAP [2]; [6]
  IC50: 3.16 nM

## O=C(O)CN1CCN(CC(=O)O)CCN(CC(=O)NCCCNC(=O)c2ccc(-c3ccc4nccc(C(=O)NCC(=O)N5CCC[C@H]5B(O)O)c4c3)cc2)CCN(CC(=O)O)CC1 [Compound 3BP-4201]
Human recombinant FAP [3]
  pKD (Biacore): >10.5
  HL [min] (Biacore): >150 min
